The results in this text go back to patent publication US11186817B2, “Chemically defined cell culture media additive” (IUCF-HYU (INDUSTRY-UNIVERSITY COOPERATION FOUNDATION …, priority 2014, dated 2021).

This assay relates to CHO DG44 cell line. The assay can be described thus: Cell line growth in HY-CDM media supplemented with DHF. The format is cell-based, Chinese hamster. From the text: 1. Cell line and media: CHO DG44 cell line was used as a DHFR-deficient cell line. The cell line was passaged 80 times or more and suspension adapted in HY-CDM (in-house) media as chemically defined media. The suspension-adapted cell line was used to evaluate the influence of tetrahydrofolate (THF) and dihydrofolate (DHF) and the growth characteristics in commercial chemically defined media. The HY-CDM media were composed of chemically defined components only. Each HY-CDM medium further included a growth factor. HY-CDM media used in Examples 1, 3, and 4 were free of an animal derived lipid mixture, and HY-CDM media used in Example 2 were supplemented with cod liver oil.
2. Cell suspension culture: The cell line was inoculated at a density of 4×10^5 cells/ml and cultured in an Erlenmeyer flask with a 30 ml/125 ml working volume on an orbital shaker at 120 rpm under humidified conditions at 37° C. and 5% CO2. Before inoculation, the cells were centrifuged at 1,000 rpm (×162 g) for 5 min, the supernatant was discarded, and the remaining cells were dispersed into single cells in the heated medium. The cells were passaged three times to minimize the influence of the remaining medium under the experimental conditions. The subcultured cells were evaluated.
3. Density of live cells: The density of live cells was analyzed using a hemocytometer (Neubauer improved bright-line, Marienfeld, Germany), an inverted microscope (CK30, Olympus, Japan), and trypan blue dye exclusion.
DHF was used at the same concentrations as THF. The addition of DHF at concentrations of […] improved cell growth by 11% and 24%, respectively (Table 8), which were about 7 times lower than the addition of THF.

On to `Nc1nc(=O)c2c([nH]1)NCC(CNc1ccc(C(=O)N[C@@H](CCC(=O)O)C(=O)O)cc1)=N2` [DHF, dihydrofolate], for which the “Increment compared to control” value runs as follows: (DHF 1.8 μM) 1.5%; (DHF 3.6 μM) 11.1%; (DHF 35.9 μM) 24.1%. Moreover, the “Maximum cell concentration, Average” value (DHF 1.8 μM) is given as 18.0 ×10^5 cells/ml; the “Maximum cell concentration, Average” value (DHF 3.6 μM) is listed as 19.7 ×10^5 cells/ml; the “Maximum cell concentration, Average” value (DHF 35.9 μM) is given as 22.0 ×10^5 cells/ml. In addition, the “Cell growth improvement lower than with the addition of THF” value (DHF 3.6 μM and 35.9 μM) was “about 7 times”. The Improved cell growth is, setting by setting: (DHF 3.6 M) 11%; (DHF 35.9 M) 24%.
